What was measured:
[1] = Surface tension test (plate method); assay type: physicochemical; details: 0.1 wt% in water, 25°C
Description: The dried medium preparation and purified surfactin sodium salt were each dissolved in water in an amount of 0.1 wt% and their ability of decreasing surface tension was tested. […]

[2] = test system: three-dimensional skin model; test: Skin irritation test: MTT cytotoxicity on three-dimensional cultured skin model; assay type: cell-based; details: test substance in PBS pH 7, 1 hour exposure, 16 hours incubation, read from graph
Description: Using a three-dimensional skin model (trade name: Three-dimensional cultured skin model, manufactured by Gunze), skin irritation tests were performed. […] The test substances were adjusted with PBS (Phosphate Buffer Saline, pH 7) so that they were in various concentrations. To the thus-adjusted test substances was exposed the skin model for 1 hour. Thereafter, the test substances were washed and incubated for 16 hours in a medium attached to the above-described three-dimensional skin model. After the incubation, a solution of MTT (3-(4,5-dimethylthiazol-2-yl)-2,5-diphenyltetrazolium bromide) was added and pigments were extracted with isopropanol rendered acidic with hydrochloric acid, followed by measurement of absorbance at a wavelength of 570 nm. […] This value was called B. The MTT solution was added to PBS and extraction was performed similarly. Absorbance of the extract measured at a wavelength of 570 nm was named C. From these values was calculated cytotoxicity. Calculation was made according to the following equation. Cytotoxicity (%) = (1-(A-c)/(B-C)) x 100 [formula]
Plotting the concentration of a test substance on the axis of abscissa and cytotoxicity on the axis of ordinate, a graph was obtained, from which the concentration of a test compound at 50% cytotoxicity was read.

[3] = Turbidity test of surfactin solutions with alkaline earth metal, judged visually after storage; assay type: physicochemical; parameters: key: -: Not turbid; +: Turbid; details: 40°C for 7 days
Description: (§1) Samples were prepared by dissolving surfactin sodium salt in a concentration of 0 or 0.2% and calcium chloride dihydrate in a calcium concentration of 0, 10, or 20 ppm in each of solvents described below, and each solution was charged in a screw vial and sealed, which was then left to stand at 40°C for 7 days. After 7 days, the turbidity of each sample was judged visually.
as §1, with “dissolving 0.2%” for “dissolving”, “salt” for “salt in a concentration of 0 or 0.2%”, “magnesium” for “calcium”
(§2) Samples were prepared by dissolving 0.2% surfactin sodium salt and calcium chloride dihydrate in a calcium concentration of 0.1, 1, or 10 ppm in the solvent described below and further disodium edetate was added in an amount of 0, 0.0001, 0.001, 0.01, 0.1, 0.2, 1, or 3%, respectively. Then, each solution was charged in a screw vial and sealed, which was then left to stand at 40°C for 7 days. After 7 days, the turbidity of each sample was judged visually. […]
as §2, with “sodium citrate” for “disodium edetate”

[4] = as above; assay type: physicochemical; parameters: key: -: Not turbid; ±: Slightly turbid; +: Turbid; details: 40°C for 7 days
Description: as §1
as §1, with “dissolving 0.2%” for “dissolving”, “salt” for “salt in a concentration of 0 or 0.2%”, “magnesium” for “calcium”
as §2
as §2, with “sodium citrate” for “disodium edetate”

## surfactin sodium salt
[1]
  Surface Tension: 27.6 mN/m
[2]
  Concentration of surfactant at 50% cytotoxicity: 24.4%
[3]; 0.2% surfactin sodium salt in Solvent 1 (deionized water), magnesium 0 ppm
  turbidity: -
[3]; 0.2% surfactin sodium salt in Solvent 1 (deionized water), magnesium 10 ppm
  turbidity: +
[3]; 0.2% surfactin sodium salt in Solvent 1 (deionized water), magnesium 20 ppm
  turbidity: +
[3]; 0.2% surfactin sodium salt in Solvent 2 (7% Ethanol, 93% deionized water), magnesium 0 ppm
  turbidity: -
[3]; 0.2% surfactin sodium salt in Solvent 3 (7% Ethanol, 5% glycerin, 5% 1,3-butylene glycol, 83% deionized water), magnesium 0 ppm
  turbidity: -
[3]; 0.2% surfactin sodium salt, sodium citrate 0%, calcium 0.1 ppm, solvent 7% Ethanol, 5% glycerin, 5% 1,3-butylene glycol, 83% deionized water
  turbidity: -
[3]; 0.2% surfactin sodium salt, sodium citrate 0%, calcium 1 ppm, solvent 7% Ethanol, 5% glycerin, 5% 1,3-butylene glycol, 83% deionized water
  turbidity: +
[3]; 0.2% surfactin sodium salt, sodium citrate 0%, calcium 10 ppm, solvent 7% Ethanol, 5% glycerin, 5% 1,3-butylene glycol, 83% deionized water
  turbidity: +
[3]; 0.2% surfactin sodium salt, sodium citrate 0.0001%, calcium 0.1 ppm, solvent 7% Ethanol, 5% glycerin, 5% 1,3-butylene glycol, 83% deionized water
  turbidity: -
[3]; 0.2% surfactin sodium salt, sodium citrate 0.0001%, calcium 10 ppm, solvent 7% Ethanol, 5% glycerin, 5% 1,3-butylene glycol, 83% deionized water
  turbidity: +
[3]; 0.2% surfactin sodium salt, sodium citrate 0.001%, calcium 0.1 ppm, solvent 7% Ethanol, 5% glycerin, 5% 1,3-butylene glycol, 83% deionized water
  turbidity: -
[3]; 0.2% surfactin sodium salt, sodium citrate 0.001%, calcium 1 ppm, solvent 7% Ethanol, 5% glycerin, 5% 1,3-butylene glycol, 83% deionized water
  turbidity: -
[3]; 0.2% surfactin sodium salt, sodium citrate 0.001%, calcium 10 ppm, solvent 7% Ethanol, 5% glycerin, 5% 1,3-butylene glycol, 83% deionized water
  turbidity: +
[3]; 0.2% surfactin sodium salt, sodium citrate 0.01%, calcium 0.1 ppm, solvent 7% Ethanol, 5% glycerin, 5% 1,3-butylene glycol, 83% deionized water
  turbidity: -
[3]; 0.2% surfactin sodium salt, sodium citrate 0.01%, calcium 1 ppm, solvent 7% Ethanol, 5% glycerin, 5% 1,3-butylene glycol, 83% deionized water
  turbidity: -
[3]; 0.2% surfactin sodium salt, sodium citrate 0.01%, calcium 10 ppm, solvent 7% Ethanol, 5% glycerin, 5% 1,3-butylene glycol, 83% deionized water
  turbidity: -
[3]; 0.2% surfactin sodium salt, sodium citrate 0.1%, calcium 0.1 ppm, solvent 7% Ethanol, 5% glycerin, 5% 1,3-butylene glycol, 83% deionized water
  turbidity: -
[3]; 0.2% surfactin sodium salt, sodium citrate 0.1%, calcium 1 ppm, solvent 7% Ethanol, 5% glycerin, 5% 1,3-butylene glycol, 83% deionized water
  turbidity: -
[3]; 0.2% surfactin sodium salt, sodium citrate 0.1%, calcium 10 ppm, solvent 7% Ethanol, 5% glycerin, 5% 1,3-butylene glycol, 83% deionized water
  turbidity: -
[3]; 0.2% surfactin sodium salt, sodium citrate 0.2%, calcium 0.1 ppm, solvent 7% Ethanol, 5% glycerin, 5% 1,3-butylene glycol, 83% deionized water
  turbidity: -
[3]; 0.2% surfactin sodium salt, sodium citrate 0.2%, calcium 1 ppm, solvent 7% Ethanol, 5% glycerin, 5% 1,3-butylene glycol, 83% deionized water
  turbidity: -
[3]; 0.2% surfactin sodium salt, sodium citrate 0.2%, calcium 10 ppm, solvent 7% Ethanol, 5% glycerin, 5% 1,3-butylene glycol, 83% deionized water
  turbidity: -
[3]; 0.2% surfactin sodium salt, sodium citrate 1%, calcium 0.1 ppm, solvent 7% Ethanol, 5% glycerin, 5% 1,3-butylene glycol, 83% deionized water
  turbidity: -
[3]; 0.2% surfactin sodium salt, sodium citrate 1%, calcium 1 ppm, solvent 7% Ethanol, 5% glycerin, 5% 1,3-butylene glycol, 83% deionized water
  turbidity: -
[3]; 0.2% surfactin sodium salt, sodium citrate 1%, calcium 10 ppm, solvent 7% Ethanol, 5% glycerin, 5% 1,3-butylene glycol, 83% deionized water
  turbidity: -
[3]; 0.2% surfactin sodium salt, sodium citrate 3%, calcium 0.1 ppm, solvent 7% Ethanol, 5% glycerin, 5% 1,3-butylene glycol, 83% deionized water
  turbidity: -
[3]; 0.2% surfactin sodium salt, sodium citrate 3%, calcium 1 ppm, solvent 7% Ethanol, 5% glycerin, 5% 1,3-butylene glycol, 83% deionized water
  turbidity: -
[3]; 0.2% surfactin sodium salt, sodium citrate 3%, calcium 10 ppm, solvent 7% Ethanol, 5% glycerin, 5% 1,3-butylene glycol, 83% deionized water
  turbidity: -
[3]; 0.2% surfactin sodium salt, sodium edetate 0%, calcium 0.1 ppm, solvent 7% Ethanol, 5% glycerin, 5% 1,3-butylene glycol, 83% deionized water
  turbidity: -
[3]; 0.2% surfactin sodium salt, sodium edetate 0%, calcium 1 ppm, solvent 7% Ethanol, 5% glycerin, 5% 1,3-butylene glycol, 83% deionized water
  turbidity: +
[3]; 0.2% surfactin sodium salt, sodium edetate 0%, calcium 10 ppm, solvent 7% Ethanol, 5% glycerin, 5% 1,3-butylene glycol, 83% deionized water
  turbidity: +
[3]; 0.2% surfactin sodium salt, sodium edetate 0.0001%, calcium 0.1 ppm, solvent 7% Ethanol, 5% glycerin, 5% 1,3-butylene glycol, 83% deionized water
  turbidity: -
[3]; 0.2% surfactin sodium salt, sodium edetate 0.0001%, calcium 10 ppm, solvent 7% Ethanol, 5% glycerin, 5% 1,3-butylene glycol, 83% deionized water
  turbidity: +
[3]; 0.2% surfactin sodium salt, sodium edetate 0.001%, calcium 0.1 ppm, solvent 7% Ethanol, 5% glycerin, 5% 1,3-butylene glycol, 83% deionized water
  turbidity: -
[3]; 0.2% surfactin sodium salt, sodium edetate 0.001%, calcium 1 ppm, solvent 7% Ethanol, 5% glycerin, 5% 1,3-butylene glycol, 83% deionized water
  turbidity: -
[3]; 0.2% surfactin sodium salt, sodium edetate 0.001%, calcium 10 ppm, solvent 7% Ethanol, 5% glycerin, 5% 1,3-butylene glycol, 83% deionized water
  turbidity: +
[3]; 0.2% surfactin sodium salt, sodium edetate 0.01%, calcium 0.1 ppm, solvent 7% Ethanol, 5% glycerin, 5% 1,3-butylene glycol, 83% deionized water
  turbidity: -
[3]; 0.2% surfactin sodium salt, sodium edetate 0.01%, calcium 1 ppm, solvent 7% Ethanol, 5% glycerin, 5% 1,3-butylene glycol, 83% deionized water
  turbidity: -
[3]; 0.2% surfactin sodium salt, sodium edetate 0.01%, calcium 10 ppm, solvent 7% Ethanol, 5% glycerin, 5% 1,3-butylene glycol, 83% deionized water
  turbidity: -
[3]; 0.2% surfactin sodium salt, sodium edetate 0.1%, calcium 0.1 ppm, solvent 7% Ethanol, 5% glycerin, 5% 1,3-butylene glycol, 83% deionized water
  turbidity: -
[3]; 0.2% surfactin sodium salt, sodium edetate 0.1%, calcium 1 ppm, solvent 7% Ethanol, 5% glycerin, 5% 1,3-butylene glycol, 83% deionized water
  turbidity: -
[3]; 0.2% surfactin sodium salt, sodium edetate 0.1%, calcium 10 ppm, solvent 7% Ethanol, 5% glycerin, 5% 1,3-butylene glycol, 83% deionized water
  turbidity: -
[3]; 0.2% surfactin sodium salt, sodium edetate 0.2%, calcium 0.1 ppm, solvent 7% Ethanol, 5% glycerin, 5% 1,3-butylene glycol, 83% deionized water
  turbidity: -
[3]; 0.2% surfactin sodium salt, sodium edetate 0.2%, calcium 1 ppm, solvent 7% Ethanol, 5% glycerin, 5% 1,3-butylene glycol, 83% deionized water
  turbidity: -
[3]; 0.2% surfactin sodium salt, sodium edetate 0.2%, calcium 10 ppm, solvent 7% Ethanol, 5% glycerin, 5% 1,3-butylene glycol, 83% deionized water
  turbidity: -
[3]; 0.2% surfactin sodium salt, sodium edetate 1%, calcium 0.1 ppm, solvent 7% Ethanol, 5% glycerin, 5% 1,3-butylene glycol, 83% deionized water
  turbidity: -
[3]; 0.2% surfactin sodium salt, sodium edetate 1%, calcium 1 ppm, solvent 7% Ethanol, 5% glycerin, 5% 1,3-butylene glycol, 83% deionized water
  turbidity: -
[3]; 0.2% surfactin sodium salt, sodium edetate 1%, calcium 10 ppm, solvent 7% Ethanol, 5% glycerin, 5% 1,3-butylene glycol, 83% deionized water
  turbidity: -
[3]; 0.2% surfactin sodium salt, sodium edetate 3%, calcium 0.1 ppm, solvent 7% Ethanol, 5% glycerin, 5% 1,3-butylene glycol, 83% deionized water
  turbidity: -
[3]; 0.2% surfactin sodium salt, sodium edetate 3%, calcium 1 ppm, solvent 7% Ethanol, 5% glycerin, 5% 1,3-butylene glycol, 83% deionized water
  turbidity: -
[3]; 0.2% surfactin sodium salt, sodium edetate 3%, calcium 10 ppm, solvent 7% Ethanol, 5% glycerin, 5% 1,3-butylene glycol, 83% deionized water
  turbidity: -
[3]; Surfactin 0.2% in Solvent 1 (deionized water), calcium 0 ppm
  turbidity: -
[3]; Surfactin 0.2% in Solvent 1 (deionized water), calcium 10 ppm
  turbidity: +
[3]; Surfactin 0.2% in Solvent 1 (deionized water), calcium 20 ppm
  turbidity: +
[3]; Surfactin 0.2% in Solvent 2 (7% Ethanol, 93% deionized water), calcium 0 ppm
  turbidity: -
[3]; Surfactin 0.2% in Solvent 2 (7% Ethanol, 93% deionized water), calcium 10 ppm
  turbidity: +
[3]; Surfactin 0.2% in Solvent 2 (7% Ethanol, 93% deionized water), calcium 20 ppm
  turbidity: +
[3]; Surfactin 0.2% in Solvent 3 (7% Ethanol, 5% glycerin, 5% 1,3-butylene glycol, 83% deionized water), calcium 0 ppm
  turbidity: -
[3]; Surfactin 0.2% in Solvent 3 (7% Ethanol, 5% glycerin, 5% 1,3-butylene glycol, 83% deionized water), calcium 10 ppm
  turbidity: +
[3]; Surfactin 0.2% in Solvent 3 (7% Ethanol, 5% glycerin, 5% 1,3-butylene glycol, 83% deionized water), calcium 20 ppm
  turbidity: +
[4]; 0.2% surfactin sodium salt in Solvent 2 (7% Ethanol, 93% deionized water), magnesium 10 ppm
  turbidity: ±
[4]; 0.2% surfactin sodium salt in Solvent 2 (7% Ethanol, 93% deionized water), magnesium 20 ppm
  turbidity: ±
[4]; 0.2% surfactin sodium salt in Solvent 3 (7% Ethanol, 5% glycerin, 5% 1,3-butylene glycol, 83% deionized water), magnesium 10 ppm
  turbidity: ±
[4]; 0.2% surfactin sodium salt in Solvent 3 (7% Ethanol, 5% glycerin, 5% 1,3-butylene glycol, 83% deionized water), magnesium 20 ppm
  turbidity: ±
[4]; 0.2% surfactin sodium salt, sodium citrate 0.0001%, calcium 1 ppm, solvent 7% Ethanol, 5% glycerin, 5% 1,3-butylene glycol, 83% deionized water
  turbidity: ±
[4]; 0.2% surfactin sodium salt, sodium edetate 0.0001%, calcium 1 ppm, solvent 7% Ethanol, 5% glycerin, 5% 1,3-butylene glycol, 83% deionized water
  turbidity: ±
